{"source": "paper PMC3009643", "about": "(BMC Neuroscience, 2010)", "key": {"[1]": {"system": "neuro-2a mouse neuroblastoma cells", "conditions": "cited from earlier work; for fold less potent than ATX in producing toxicity: neuro-2a mouse neuroblastoma cells"}, "[2]": {"target": "T1, calcium-permeable DEAA mutant of rNav1.4 α-subunit (Rattus norvegicus, UniProt P15390, K1237A)", "T1 construct": "host or cells: HEK 293", "T1 sequence (P15390 whole entry K1237A)": "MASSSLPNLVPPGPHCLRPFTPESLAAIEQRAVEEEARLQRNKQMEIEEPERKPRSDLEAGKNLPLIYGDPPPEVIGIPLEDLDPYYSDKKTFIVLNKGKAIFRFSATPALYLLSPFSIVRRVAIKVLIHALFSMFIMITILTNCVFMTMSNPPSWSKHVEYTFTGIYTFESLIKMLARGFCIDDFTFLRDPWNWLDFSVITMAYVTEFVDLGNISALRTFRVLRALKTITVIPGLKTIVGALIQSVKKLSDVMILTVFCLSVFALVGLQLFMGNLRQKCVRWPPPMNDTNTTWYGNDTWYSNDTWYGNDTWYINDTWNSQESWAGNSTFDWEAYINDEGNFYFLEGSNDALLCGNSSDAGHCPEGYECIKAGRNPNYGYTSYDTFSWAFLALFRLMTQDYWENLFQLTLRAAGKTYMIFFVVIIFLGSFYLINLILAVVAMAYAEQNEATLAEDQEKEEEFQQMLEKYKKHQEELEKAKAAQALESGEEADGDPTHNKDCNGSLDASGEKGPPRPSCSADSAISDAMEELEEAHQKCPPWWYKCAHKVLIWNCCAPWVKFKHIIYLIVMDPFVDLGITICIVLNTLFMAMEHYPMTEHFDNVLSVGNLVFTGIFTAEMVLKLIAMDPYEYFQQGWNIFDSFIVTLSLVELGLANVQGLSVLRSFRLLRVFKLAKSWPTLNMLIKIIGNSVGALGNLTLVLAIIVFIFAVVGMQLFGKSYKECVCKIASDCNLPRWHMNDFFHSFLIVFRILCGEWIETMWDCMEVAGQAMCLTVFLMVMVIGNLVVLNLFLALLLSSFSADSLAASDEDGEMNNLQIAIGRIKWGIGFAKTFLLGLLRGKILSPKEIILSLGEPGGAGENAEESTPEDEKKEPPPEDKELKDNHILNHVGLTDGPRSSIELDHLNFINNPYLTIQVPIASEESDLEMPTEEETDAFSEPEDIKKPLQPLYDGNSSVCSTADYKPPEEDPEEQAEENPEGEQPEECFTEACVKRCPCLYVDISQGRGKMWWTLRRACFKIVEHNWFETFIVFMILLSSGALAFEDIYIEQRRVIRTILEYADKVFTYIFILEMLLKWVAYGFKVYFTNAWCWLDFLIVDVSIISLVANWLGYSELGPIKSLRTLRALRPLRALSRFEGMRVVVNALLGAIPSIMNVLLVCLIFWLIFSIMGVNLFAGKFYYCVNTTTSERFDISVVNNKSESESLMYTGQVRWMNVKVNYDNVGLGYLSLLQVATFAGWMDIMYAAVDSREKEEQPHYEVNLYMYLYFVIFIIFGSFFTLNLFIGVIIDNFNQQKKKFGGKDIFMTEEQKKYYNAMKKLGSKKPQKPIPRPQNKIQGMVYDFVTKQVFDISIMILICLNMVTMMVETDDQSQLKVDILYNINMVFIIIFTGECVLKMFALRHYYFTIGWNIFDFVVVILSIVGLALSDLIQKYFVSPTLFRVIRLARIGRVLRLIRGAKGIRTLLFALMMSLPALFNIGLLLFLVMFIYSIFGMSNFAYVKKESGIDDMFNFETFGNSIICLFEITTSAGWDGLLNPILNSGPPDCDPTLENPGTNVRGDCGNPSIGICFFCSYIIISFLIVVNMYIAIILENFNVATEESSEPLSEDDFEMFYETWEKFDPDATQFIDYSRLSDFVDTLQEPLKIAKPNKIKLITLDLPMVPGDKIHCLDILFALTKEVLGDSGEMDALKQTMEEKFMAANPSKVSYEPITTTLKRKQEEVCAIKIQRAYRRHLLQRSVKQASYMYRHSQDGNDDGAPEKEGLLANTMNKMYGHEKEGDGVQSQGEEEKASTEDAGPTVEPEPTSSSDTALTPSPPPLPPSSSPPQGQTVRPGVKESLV", "test": "fluo-3 calcium influx assay in DEAA-HEK 293 cells", "format": "cell-based", "conditions": "for EC50: fluo-3, read-out: EC50, Ca2+ influx (95% CI)"}, "[3]": {"system": "HEK 293 cells", "test": "SBFI sodium influx assay in wild type HEK 293 parent cells", "format": "cell-based, human", "conditions": "wild type HEK 293 parent cell line"}, "[4]": {"target": "T2, rNav1.2 α-subunit (Rattus norvegicus, UniProt P04775)", "T2 construct": "host or cells: CHL 1610 (Chinese hamster lung)", "T2 sequence (P04775 whole entry)": "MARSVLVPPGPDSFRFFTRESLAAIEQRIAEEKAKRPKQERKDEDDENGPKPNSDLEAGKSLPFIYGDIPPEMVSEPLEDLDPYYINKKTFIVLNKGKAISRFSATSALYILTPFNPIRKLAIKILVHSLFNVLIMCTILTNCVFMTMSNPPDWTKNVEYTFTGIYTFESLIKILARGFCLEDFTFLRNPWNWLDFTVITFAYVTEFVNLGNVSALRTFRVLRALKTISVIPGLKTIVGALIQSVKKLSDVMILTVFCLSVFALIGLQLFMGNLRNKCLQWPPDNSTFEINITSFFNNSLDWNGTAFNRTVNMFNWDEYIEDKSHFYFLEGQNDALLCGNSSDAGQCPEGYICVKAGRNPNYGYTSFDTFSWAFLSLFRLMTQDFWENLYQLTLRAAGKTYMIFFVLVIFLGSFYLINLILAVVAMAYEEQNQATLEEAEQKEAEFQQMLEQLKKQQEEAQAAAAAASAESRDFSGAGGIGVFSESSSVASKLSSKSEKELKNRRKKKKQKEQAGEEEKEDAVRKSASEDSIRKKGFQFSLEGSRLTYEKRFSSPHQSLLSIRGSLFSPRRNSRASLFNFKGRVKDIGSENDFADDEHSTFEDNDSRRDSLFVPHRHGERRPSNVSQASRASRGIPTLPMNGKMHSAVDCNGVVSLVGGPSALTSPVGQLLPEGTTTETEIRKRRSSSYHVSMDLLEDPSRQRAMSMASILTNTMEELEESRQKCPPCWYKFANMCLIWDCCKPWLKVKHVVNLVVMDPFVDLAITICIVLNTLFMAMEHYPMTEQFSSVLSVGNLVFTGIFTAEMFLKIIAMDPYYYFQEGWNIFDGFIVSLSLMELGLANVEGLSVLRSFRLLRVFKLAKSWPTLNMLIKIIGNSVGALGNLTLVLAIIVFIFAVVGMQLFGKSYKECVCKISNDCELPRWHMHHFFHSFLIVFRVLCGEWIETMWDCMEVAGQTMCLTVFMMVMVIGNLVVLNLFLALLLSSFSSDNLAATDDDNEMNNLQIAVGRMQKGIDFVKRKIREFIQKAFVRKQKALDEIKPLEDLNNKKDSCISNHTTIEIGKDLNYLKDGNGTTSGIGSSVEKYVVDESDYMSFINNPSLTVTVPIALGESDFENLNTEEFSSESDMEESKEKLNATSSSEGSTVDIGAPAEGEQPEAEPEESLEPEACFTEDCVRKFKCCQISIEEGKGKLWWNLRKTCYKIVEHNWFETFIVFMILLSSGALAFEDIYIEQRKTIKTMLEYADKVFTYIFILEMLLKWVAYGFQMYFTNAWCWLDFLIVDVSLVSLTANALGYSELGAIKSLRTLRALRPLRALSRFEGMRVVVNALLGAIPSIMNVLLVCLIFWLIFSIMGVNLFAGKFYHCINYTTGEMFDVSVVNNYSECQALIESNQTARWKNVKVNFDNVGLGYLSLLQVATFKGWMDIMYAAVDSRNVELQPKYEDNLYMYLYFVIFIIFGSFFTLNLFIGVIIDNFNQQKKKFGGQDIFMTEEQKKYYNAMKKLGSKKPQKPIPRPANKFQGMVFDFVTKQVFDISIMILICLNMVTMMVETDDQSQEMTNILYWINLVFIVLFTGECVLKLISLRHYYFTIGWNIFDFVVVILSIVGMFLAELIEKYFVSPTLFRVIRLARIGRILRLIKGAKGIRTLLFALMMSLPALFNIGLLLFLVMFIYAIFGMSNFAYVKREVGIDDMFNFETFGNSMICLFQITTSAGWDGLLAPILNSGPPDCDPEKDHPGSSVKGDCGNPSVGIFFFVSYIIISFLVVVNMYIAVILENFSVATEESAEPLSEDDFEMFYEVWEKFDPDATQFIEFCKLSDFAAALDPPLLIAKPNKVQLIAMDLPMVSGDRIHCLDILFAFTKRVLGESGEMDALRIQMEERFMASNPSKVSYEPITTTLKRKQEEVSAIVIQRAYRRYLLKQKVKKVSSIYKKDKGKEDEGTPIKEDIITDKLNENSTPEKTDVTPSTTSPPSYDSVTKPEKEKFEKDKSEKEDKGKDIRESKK", "test": "cell-based", "format": "cell-based", "conditions": "for EC50: rNav1.2-CHL 1610 cells, SBFI, 37°C, read-out: EC50 (nM) (95% CI), sodium influx"}, "[5]": {"target": "T3, rNav1.5 α-subunit (Rattus norvegicus, UniProt P15389)", "T3 construct": "host or cells: CHL 1610 (Chinese hamster lung)", "test": "SBFI sodium influx assay in rNav1.5-CHL 1610 cells", "format": "cell-based", "conditions": "for EC50: rNav1.5-CHL 1610 cells, SBFI, 37°C, read-out: EC50 (nM) (95% CI), sodium influx"}, "[6]": {"target": "T4, rNav1.4 α-subunit (Rattus norvegicus, UniProt P15390)", "T4 construct": "host or cells: HEK 293", "T4 sequence (P15390 whole entry)": "as the sequence (P15390 whole entry K1237A) above, with A1237K counted along it", "test": "SBFI sodium influx assay in rNav1.4-HEK 293 cells", "format": "cell-based", "conditions": "for maximal response of sodium influx, area under the curve (AUC, fluorescence × time) (95%CI) / EC50: rNav1.4-HEK 293 cells; for EC50: SBFI, 37°C, read-out: EC50 (nM) (95% CI), sodium influx"}, "[7]": {"system": "rNav1.2-CHL 1610, rNav1.4-HEK 293 and rNav1.5-CHL 160 cells", "format": "cell-based", "conditions": "1 μM ATX for 24 h; preliminary experiments", "description": "Supplementary file 1471-2202-11-154-S1.TIFF: Additional file 1 Lack of toxic effect of ATX in rNav1.2-CHL 1610, rNav1.4-HEK 293 and rNav1.5-CHL 160 cells. The cells were exposed to 1 μM ATX for 24 h and the medium was collected and subjected to LDH activity measurement as described by Koh and Choi (1987; Koh, JY, and Choi, DW. Quantitative determination of glutamate mediated cortical neuronal injury in cell culture by lactate dehydrogenase efflux assay. J Neurosci Methods 20:83-90). […] Click here for file"}, "[8]": {"system": "CHL 1610 cells", "test": "SBFI sodium influx assay in wild type CHL 1610 parent cells", "format": "cell-based, Chinese hamster", "conditions": "wild type CHL 1610 parent cell line"}, "[9]": {"system": "sodium channel neurotoxin site 2", "conditions": "cited from earlier work"}, "[10]": {"system": "neocortical neurons", "conditions": "cited from earlier work"}}, "note": "Like-named read-outs stand apart in the source and are kept apart here."}
{"compound": "8-demethyl-antillatoxin [reference compound]", "values": [{"measurement": "fold less potent than ATX in producing toxicity", "setting": "[1]", "result": 244, "unit": "fold"}]}
{"compound": "C=C1CC(=O)N[C@@H](C)C(=O)N(C)[C@@H](C(C)C)C(=O)NCC(=O)O[C@@H](/C(C)=C/C(C)=C/C(C)(C)C)[C@@H]1C", "note": "[ATX, antillatoxin]", "values": [{"measurement": "EC50", "setting": "[2]; DEAA-HEK 293 cells", "result": 165, "unit": "nM"}, {"measurement": "sodium influx (in words)", "setting": "[3]", "result": "minimal sodium influx"}, {"measurement": "EC50", "setting": "[4]", "result": 376, "unit": "nM"}, {"measurement": "Efficacy (relative), sodium influx", "setting": "[4]; rNav1.2, relative to ATX = 1", "result": 1}, {"measurement": "fold more potent than in neuronal rNav1.2, sodium influx", "setting": "[5]; cardiac rNav1.5 versus rNav1.2", "result": 2, "unit": "fold"}, {"measurement": "EC50", "setting": "[5]", "result": 205, "unit": "nM"}, {"measurement": "Efficacy (relative), sodium influx", "setting": "[5]; rNav1.5, relative to ATX = 1", "result": 1}, {"measurement": "maximal response of sodium influx, area under the curve (AUC, fluorescence × time) (95%CI)", "setting": "[6]; ATX alone", "result": 439.4}, {"measurement": "maximal response of sodium influx, area under the curve (AUC, fluorescence × time) (95%CI)", "setting": "[6]; ATX in the presence of PbTx-2 (3 μM)", "result": 537.9}, {"measurement": "EC50", "setting": "[6]", "result": 165, "unit": "nM"}, {"measurement": "Efficacy (relative), sodium influx", "setting": "[6]; rNav1.4, relative to ATX = 1", "result": 1}, {"measurement": "fold more potent than in neuronal rNav1.2, sodium influx", "setting": "[6]; skeletal muscle rNav1.4 versus rNav1.2", "result": 2, "unit": "fold"}, {"measurement": "toxicity (LDH activity, in words)", "setting": "[7]", "result": "not toxic"}, {"measurement": "sodium influx (in words)", "setting": "[8]", "result": "minimal sodium influx"}]}
{"compound": "C=C1CC(=O)N[C@@H](C)C(=O)N(C)[C@@H](C(C)C)C(=O)NCC(=O)O[C@@H](/C(C)=C/CCC(C)(C)C)[C@@H]1C", "note": "[DH-ATX, 8-demethyl-8,9-dihydro-antillatoxin]", "values": [{"measurement": "EC50", "setting": "[2]; DEAA-HEK 293 cells", "result": 680, "unit": "nM"}, {"measurement": "relative efficacy, Ca2+ influx", "setting": "[2]; DEAA-HEK 293 cells, relative to ATX", "result": 0.24}, {"measurement": "EC50", "setting": "[4]", "result": 1130, "unit": "nM"}, {"measurement": "Efficacy (relative), sodium influx", "setting": "[4]; rNav1.2, relative to ATX = 1", "result": 0.32}, {"measurement": "fold less potent than ATX, stimulation of sodium influx", "setting": "[4]; stated for all three cell lines (rNav1.2-CHL 1610, rNav1.4-HEK 293, rNav1.5-CHL 1610)", "result": "2.5 - 4 fold"}, {"measurement": "EC50", "setting": "[5]", "result": 595, "unit": "nM"}, {"measurement": "Efficacy (relative), sodium influx", "setting": "[5]; rNav1.5, relative to ATX = 1", "result": 0.25}, {"measurement": "EC50", "setting": "[6]", "result": 644, "unit": "nM"}, {"measurement": "Efficacy (relative), sodium influx", "setting": "[6]; rNav1.4, relative to ATX = 1", "result": 0.33}, {"measurement": "fold less potent than ATX in producing toxicity", "setting": "[1]", "result": 27, "unit": "fold"}, {"measurement": "EC50", "setting": "[1]; neuro-2a neuroblastoma cells, read-out: EC50, toxicity", "result": 1200, "unit": "nM"}]}
{"compound": "CCC[C@@H](C)[C@H](O)[C@H](C)[C@H]1OC(=O)[C@H]([C@@H](C)O)NC(=O)[C@H](C(C)C)OC(=O)[C@H](C)[C@H](O)[C@H]([C@@H](C)CC)NC(=O)[C@@]2(C)CSC(=N2)[C@@]2(C)CSC(=N2)c2csc(n2)C[C@H](OC)[C@@H]1C", "note": "[Hoiamide A, hoiamide A]", "values": [{"measurement": "fold more potent than veratridine, inhibition of [3H]BTX binding", "setting": "[9]", "result": 360, "unit": "fold"}, {"measurement": "IC50", "setting": "[9]; read-out: IC50, inhibition of [3H]BTX binding", "result": 92.8, "unit": "nM"}]}
{"compound": "NC1=N[C@H](O)[C@H]2[C@H]3O[C@]4(O)O[C@@H]([C@@H](O)[C@@]2(N1)[C@@H]4O)[C@]3(O)CO", "note": "[TTX, tetrodotoxin, reference compound]", "values": [{"measurement": "IC50", "setting": "[6]; read-out: IC50, inhibition of ATX-induced sodium influx (95% CI)", "result": 25.2, "unit": "nM"}]}
{"compound": "COc1ccc(C(=O)O[C@H]2CC[C@@]3(C)[C@@H]4CC[C@H]5[C@]6(O)C[C@H](O)[C@@]7(O)[C@@H](CN8C[C@@H](C)CC[C@H]8[C@@]7(C)O)[C@]6(O)C[C@@]53O[C@]24O)cc1OC", "note": "[Veratridine, veratridine, reference compound]", "values": [{"measurement": "stimulation of Ca2+ influx (in words)", "setting": "[2]; DEAA-HEK 293 cells", "result": "without effect"}, {"measurement": "Efficacy (relative), sodium influx", "setting": "[4]; rNav1.2, relative to ATX = 1", "result": 0}, {"measurement": "Efficacy (relative), sodium influx", "setting": "[5]; rNav1.5, relative to ATX = 1", "result": 0}, {"measurement": "Efficacy (relative), sodium influx", "setting": "[6]; rNav1.4, relative to ATX = 1", "result": 0}, {"measurement": "efficacy, sodium influx", "setting": "[10]; neocortical neurons", "result": 0.67}]}
{"compound": "brevetoxin-2 [PbTx-2, reference compound]", "values": [{"measurement": "stimulation of Ca2+ influx (in words)", "setting": "[2]", "result": "without effect"}, {"measurement": "Efficacy (relative), sodium influx", "setting": "[4]", "result": 0}, {"measurement": "Efficacy (relative), sodium influx", "setting": "[5]", "result": 0}, {"measurement": "Efficacy (relative), sodium influx", "setting": "[6]", "result": 0}, {"measurement": "efficacy, sodium influx", "setting": "[10]", "result": 0.81}]}
